Laboratory results published in PMC4494927, “Discovery of a small molecule targeting SET-PP2A interaction to overcome BCR-ABLT315I mutation of chronic myeloid leukemia” (Oncotarget, 2015).

Assays:
BaF3-p210^T315I cells [1] = test: Survival study, intravenously injected tumor cells; type: in vivo, BALB/c mice; details: 30 mg/kg i.p. once daily from day 5; vehicle 25.5 days
Description: In survival study, BaF3-p210^T315I cells were injected into the tail vein of BALB/c mice (100 μL of a 1 × 10^7 cells suspension in serum free medium). […] Moribund animals were sacrificed as per institutional and national guidelines. Survival data were analyzed by the Kaplan Meier method and compared using the log-rank test.

HT-29 cells = test: Cytotoxicity assay (CellTiter-Glo); type: cell-based, human; details: 120 h, panel of 20 tumor cell lines
Description: (§1) Twenty types of tumor cell lines were seeded at 4000 cells per well in 96-well plates. TGI1002 dissolved in phosphate saline was added to cells at final concentrations ranging from 0.5 nM to 100 μM for 120 h. Cell viability was measured with the CellTiter-Glo Luminescent Cell Viability Assay (Promega) according to the manufacturer's instructions. Luminescence was measured using an EnVision Multilabel Plate Reader (Perkin-Elmer). The cytotoxicity of TGI1002 was expressed as the percentage of luminescence relative to that of untreated cells.

PC-3 cells = test: Cytotoxicity assay (CellTiter-Glo); type: cell-based, human; details: 120 h, panel of 20 tumor cell lines
Description: as §1

BCR-ABL = test: Western blot of BCR-ABL expression in K562 cells; type: cell-based, human
Description: Protein samples (40 μg) were resolved on SDS-PAGE gels, transferred onto PVDF membranes (Millipore) and incubated overnight with primary antibodies to β-tubulin, BCR-ABL, p-BCR-ABL, SET, PP2Ac and p-PP2Ac. The membranes were incubated with horseradish peroxidase (HRP)-conjugated secondary antibody for 1 h, and the bands were visualized using an ECL detection kit following the manufacturer's instructions. For immunoprecipitation, cells were lysed in 20 mM Tris-HCl (pH 7.0), 150 mM NaCl, 1 mM EDTA, 1 mM MgCl and 0.5% NP-40 supplemented with a cocktail of protease and phosphatase inhibitors (Roche). Lysates (200 μg) were incubated with primary antibodies (1 μg) against SET or PP2Ac at 4 °C for 10 h, protein A/G plus agarose beads were then added for immunoprecipitation overnight at 4 °C. After wash, the immunoprecipitated proteins were separated by SDS-PAGE and analyzed by Western blotting.

PP2A = test: PP2Ac immunoprecipitation phosphatase assay in K562 cells; type: cell-based, human; details: 10 μM, 24 h
Description: PP2A assay from whole cell lysates was carried out using commercial PP2Ac immunoprecipitation phosphatase assay kit (Millipore). Briefly, 200 μg protein lysates prepared as described above, 4 μg PP2Ac-specific antibody, and 40 μL protein A-agarose were added to TBS buffer (20 mM Tris-HCl, 150 mM NaCl, and 0.1% Tween 20) to a final volume of 500 μL and immunoprecipitation was carried out at 4 °C for 2 h. The immunoprecipitates were used in the phosphatase reaction following the manufacturer's protocol.

ALK = ALK (Homo sapiens, UniProt Q9UM73); test: In vitro kinase assay (Kinase-Glo / ADP-Glo); type: biochemical; details: TGI1002 1 µM; means of two independent experiments; read-out: Inhibitory effect (%)
Description: (§2) All kinase reactions were carried out in 384-well plates. After addition of the compounds, kinase and ATP-substrate were added to the assay plates successively, the assay plates were centrifuged at 1,000 x g for 1 min and incubated for 1 h at 30 °C. Then, Kinase-Glo Plus or ADP-Glo reagent was added to each well. In Kinase-Glo assay, after addition of the reagent for 20 min, the luminescence was measured on an EnVision Multilabel Plate Reader (Perkin-Elmer). In ADP-Glo assay, after addition of the reagent for 40 min, Kinase Detection Reagent was added and incubated for another 30 min at 27 °C, and then the luminescence was measured. Kinase inhibition rates were calculated per manufacturer's instructions.

IGF1R = IGF1R (Homo sapiens, UniProt P08069); test: In vitro kinase assay (Kinase-Glo / ADP-Glo); type: biochemical; details: TGI1002 1 µM; means of two independent experiments; read-out: Inhibitory effect (%)
Description: as §2

ABL1 = ABL1 (Homo sapiens, UniProt P00519); test: In vitro kinase assay (Kinase-Glo / ADP-Glo); type: biochemical; details: TGI1002 1 µM; means of two independent experiments; read-out: Inhibitory effect (%)
Description: as §2

ERK2(MAPK1) = ERK2(MAPK1) (Homo sapiens, UniProt P28482); test: In vitro kinase assay (Kinase-Glo / ADP-Glo); type: biochemical; details: TGI1002 1 µM; means of two independent experiments; read-out: Inhibitory effect (%)
Description: as §2

GSK3α = GSK3α (Homo sapiens, UniProt P49840); test: In vitro kinase assay (Kinase-Glo / ADP-Glo); type: biochemical; details: TGI1002 1 µM; means of two independent experiments; read-out: Inhibitory effect (%)
Description: as §2

InsR = InsR (Homo sapiens, UniProt P06213); test: In vitro kinase assay (Kinase-Glo / ADP-Glo); type: biochemical; details: TGI1002 1 µM; means of two independent experiments; read-out: Inhibitory effect (%)
Description: as §2

GSK3β = GSK3β (Homo sapiens, UniProt P49841); test: In vitro kinase assay (Kinase-Glo / ADP-Glo); type: biochemical; details: TGI1002 1 µM; means of two independent experiments; read-out: Inhibitory effect (%)
Description: as §2

Aurora B = Aurora B (Homo sapiens, UniProt Q96GD4); test: In vitro kinase assay (Kinase-Glo / ADP-Glo); type: biochemical; details: TGI1002 1 µM; means of two independent experiments; read-out: Inhibitory effect (%)
Description: as §2

p38α = p38α (Homo sapiens, UniProt Q16539); test: In vitro kinase assay (Kinase-Glo / ADP-Glo); type: biochemical; details: TGI1002 1 µM; means of two independent experiments; read-out: Inhibitory effect (%)
Description: as §2

HER2 = HER2 (Homo sapiens, UniProt P04626); test: In vitro kinase assay (Kinase-Glo / ADP-Glo); type: biochemical; details: TGI1002 1 µM; means of two independent experiments; read-out: Inhibitory effect (%)
Description: as §2

ERK1 = ERK1 (Homo sapiens, UniProt P27361); test: In vitro kinase assay (Kinase-Glo / ADP-Glo); type: biochemical; details: TGI1002 1 µM; means of two independent experiments; read-out: Inhibitory effect (%)
Description: as §2

BaF3-p210^T315I cells [2] = test: Cytotoxicity assay (CellTiter-Glo); type: cell-based, murine; details: Mus musculus; TKI-resistant BaF3-p210^T315I cells, cell viability
Description: as §1

[3] = molecular target: T1, recombinant human SET protein (Homo sapiens, UniProt Q01105); test: Microscale thermophoresis (MST) binding to NT647-labeled SET; details: 15 μM NT647-labeled SET, PBS pH 8.0, 25 °C
T1 construct: Genes encoding the full length of human SET (GenBank No.: AAA60318.1) was synthesized; made in house; host or cells: E. coli (pET-21a)
Description: Thermophoresis analysis was performed during 30 s on a NanoTemper Monolith NT.115 instrument (20% LED, 40% MST power) at 25 °C.

[4] = test system: BaF3-p210^T315I tumor xenografts; test: In vivo anti-tumor efficacy, subcutaneous xenograft; parameters: species or system BALB/c mice; details: for inhibition of tumor growth, in terms of tumor volume: day 20 post-injection of BaF3-p210^T315I cells
Description: BABL/c male mice from SLRC Experimental Animal Center were bred under pathogen-free conditions and were used for experiments at 6-8 weeks of age. Animal experiments were performed according to institutional and national guidelines. BaF3-p210^T315I cells were implanted subcutaneously into the right flank of nude mice (200 μL of a 1 × 10^7cells suspension in serum free medium). When tumors became large enough for caliper measurement, tumor volumes were calculated as (length × width^2) × 0.5. […] At the end of the experiments, tumors were dissected and photographed, and wet weights of each tumor were measured.

Sequence of ERK2(MAPK1) (P28482 whole entry): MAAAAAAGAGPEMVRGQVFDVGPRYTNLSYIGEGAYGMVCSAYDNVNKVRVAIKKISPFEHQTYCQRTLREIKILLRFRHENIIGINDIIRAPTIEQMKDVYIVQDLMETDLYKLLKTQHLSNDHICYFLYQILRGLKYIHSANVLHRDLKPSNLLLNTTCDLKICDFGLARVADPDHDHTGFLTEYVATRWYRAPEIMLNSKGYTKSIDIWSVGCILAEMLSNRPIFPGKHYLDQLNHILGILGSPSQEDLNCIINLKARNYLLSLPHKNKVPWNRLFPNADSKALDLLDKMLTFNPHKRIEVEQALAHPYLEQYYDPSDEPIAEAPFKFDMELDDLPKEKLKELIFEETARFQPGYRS
Sequence of p38α (Q16539 whole entry): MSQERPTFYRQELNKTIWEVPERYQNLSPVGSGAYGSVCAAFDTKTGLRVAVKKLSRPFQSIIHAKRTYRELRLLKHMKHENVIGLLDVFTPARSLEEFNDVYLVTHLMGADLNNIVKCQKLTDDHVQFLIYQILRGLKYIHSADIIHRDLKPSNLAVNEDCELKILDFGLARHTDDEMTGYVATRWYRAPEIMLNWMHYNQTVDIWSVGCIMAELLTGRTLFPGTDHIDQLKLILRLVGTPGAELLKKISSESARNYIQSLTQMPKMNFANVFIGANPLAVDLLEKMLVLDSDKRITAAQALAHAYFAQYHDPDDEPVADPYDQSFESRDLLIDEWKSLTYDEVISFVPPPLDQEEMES
Sequence of ABL1 (P00519 whole entry): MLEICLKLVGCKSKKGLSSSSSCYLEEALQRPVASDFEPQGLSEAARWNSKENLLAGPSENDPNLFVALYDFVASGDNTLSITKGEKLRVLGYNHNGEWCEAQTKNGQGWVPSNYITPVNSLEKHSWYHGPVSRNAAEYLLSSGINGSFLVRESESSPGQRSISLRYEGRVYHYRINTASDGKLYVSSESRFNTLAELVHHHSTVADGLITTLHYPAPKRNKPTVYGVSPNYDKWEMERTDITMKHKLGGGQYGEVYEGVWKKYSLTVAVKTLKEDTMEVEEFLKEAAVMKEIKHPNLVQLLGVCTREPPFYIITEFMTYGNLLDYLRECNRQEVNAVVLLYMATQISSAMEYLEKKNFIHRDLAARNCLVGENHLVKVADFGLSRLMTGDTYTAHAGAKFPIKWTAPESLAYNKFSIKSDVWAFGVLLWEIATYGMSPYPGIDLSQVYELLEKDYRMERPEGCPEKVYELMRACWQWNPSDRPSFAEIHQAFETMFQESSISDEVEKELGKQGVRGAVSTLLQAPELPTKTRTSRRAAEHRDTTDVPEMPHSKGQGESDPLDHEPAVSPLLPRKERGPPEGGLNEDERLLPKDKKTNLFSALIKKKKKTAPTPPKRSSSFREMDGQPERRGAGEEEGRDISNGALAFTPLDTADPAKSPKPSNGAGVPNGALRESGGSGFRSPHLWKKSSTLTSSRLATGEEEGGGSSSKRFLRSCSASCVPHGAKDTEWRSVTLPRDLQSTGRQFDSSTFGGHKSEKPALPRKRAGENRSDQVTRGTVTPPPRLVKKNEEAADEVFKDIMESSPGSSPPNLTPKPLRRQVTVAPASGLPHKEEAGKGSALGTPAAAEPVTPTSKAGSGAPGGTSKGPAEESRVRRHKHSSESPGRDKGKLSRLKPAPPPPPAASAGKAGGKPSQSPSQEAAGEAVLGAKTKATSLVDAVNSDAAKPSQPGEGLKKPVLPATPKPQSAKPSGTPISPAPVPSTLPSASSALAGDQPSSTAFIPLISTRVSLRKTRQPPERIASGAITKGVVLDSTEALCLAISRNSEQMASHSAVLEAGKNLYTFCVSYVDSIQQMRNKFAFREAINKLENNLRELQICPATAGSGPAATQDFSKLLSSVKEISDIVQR
Sequence of GSK3α (P49840 whole entry): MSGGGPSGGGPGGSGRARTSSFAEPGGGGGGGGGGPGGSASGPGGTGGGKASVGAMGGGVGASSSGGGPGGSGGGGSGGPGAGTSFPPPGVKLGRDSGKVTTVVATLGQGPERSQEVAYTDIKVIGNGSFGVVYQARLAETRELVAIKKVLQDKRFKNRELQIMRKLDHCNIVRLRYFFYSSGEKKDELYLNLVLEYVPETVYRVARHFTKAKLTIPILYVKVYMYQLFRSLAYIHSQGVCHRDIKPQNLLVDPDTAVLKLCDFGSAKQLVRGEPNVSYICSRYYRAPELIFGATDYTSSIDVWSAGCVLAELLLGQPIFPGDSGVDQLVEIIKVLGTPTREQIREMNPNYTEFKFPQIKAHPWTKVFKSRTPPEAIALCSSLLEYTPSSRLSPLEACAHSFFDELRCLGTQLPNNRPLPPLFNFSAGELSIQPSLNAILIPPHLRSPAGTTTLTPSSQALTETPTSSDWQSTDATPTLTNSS
Sequence of ERK1 (P27361 whole entry): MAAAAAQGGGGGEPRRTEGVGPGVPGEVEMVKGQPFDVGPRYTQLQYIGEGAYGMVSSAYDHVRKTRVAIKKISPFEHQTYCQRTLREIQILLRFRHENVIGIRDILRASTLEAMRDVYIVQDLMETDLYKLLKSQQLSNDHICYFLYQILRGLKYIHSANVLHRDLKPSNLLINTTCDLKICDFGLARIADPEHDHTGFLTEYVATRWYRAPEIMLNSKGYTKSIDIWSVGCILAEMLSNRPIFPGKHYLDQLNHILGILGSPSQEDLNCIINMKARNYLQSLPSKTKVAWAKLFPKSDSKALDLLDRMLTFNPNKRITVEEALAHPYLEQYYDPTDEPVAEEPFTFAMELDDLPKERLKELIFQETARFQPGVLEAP
Sequence of GSK3β (P49841 whole entry): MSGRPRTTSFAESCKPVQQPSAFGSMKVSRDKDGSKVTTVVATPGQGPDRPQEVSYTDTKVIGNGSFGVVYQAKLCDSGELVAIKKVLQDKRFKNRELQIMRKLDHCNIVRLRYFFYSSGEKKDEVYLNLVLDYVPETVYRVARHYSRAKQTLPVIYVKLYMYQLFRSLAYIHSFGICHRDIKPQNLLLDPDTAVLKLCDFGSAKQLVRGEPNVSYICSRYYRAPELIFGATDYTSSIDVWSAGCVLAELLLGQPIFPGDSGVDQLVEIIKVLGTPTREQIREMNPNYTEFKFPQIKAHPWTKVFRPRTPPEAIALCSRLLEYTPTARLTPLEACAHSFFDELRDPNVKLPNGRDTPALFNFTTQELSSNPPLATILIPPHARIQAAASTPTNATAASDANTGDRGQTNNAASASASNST
T1 sequence (Q01105 1-277 isoform Q01105-2): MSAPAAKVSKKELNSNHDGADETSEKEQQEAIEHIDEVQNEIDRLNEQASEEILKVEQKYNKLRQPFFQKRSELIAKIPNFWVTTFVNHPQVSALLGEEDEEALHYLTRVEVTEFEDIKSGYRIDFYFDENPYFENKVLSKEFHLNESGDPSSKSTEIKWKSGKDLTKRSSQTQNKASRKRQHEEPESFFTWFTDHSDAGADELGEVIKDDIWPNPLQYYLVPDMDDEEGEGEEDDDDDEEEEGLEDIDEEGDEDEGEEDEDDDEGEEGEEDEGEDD
Sequence of HER2 (P04626 23-1255): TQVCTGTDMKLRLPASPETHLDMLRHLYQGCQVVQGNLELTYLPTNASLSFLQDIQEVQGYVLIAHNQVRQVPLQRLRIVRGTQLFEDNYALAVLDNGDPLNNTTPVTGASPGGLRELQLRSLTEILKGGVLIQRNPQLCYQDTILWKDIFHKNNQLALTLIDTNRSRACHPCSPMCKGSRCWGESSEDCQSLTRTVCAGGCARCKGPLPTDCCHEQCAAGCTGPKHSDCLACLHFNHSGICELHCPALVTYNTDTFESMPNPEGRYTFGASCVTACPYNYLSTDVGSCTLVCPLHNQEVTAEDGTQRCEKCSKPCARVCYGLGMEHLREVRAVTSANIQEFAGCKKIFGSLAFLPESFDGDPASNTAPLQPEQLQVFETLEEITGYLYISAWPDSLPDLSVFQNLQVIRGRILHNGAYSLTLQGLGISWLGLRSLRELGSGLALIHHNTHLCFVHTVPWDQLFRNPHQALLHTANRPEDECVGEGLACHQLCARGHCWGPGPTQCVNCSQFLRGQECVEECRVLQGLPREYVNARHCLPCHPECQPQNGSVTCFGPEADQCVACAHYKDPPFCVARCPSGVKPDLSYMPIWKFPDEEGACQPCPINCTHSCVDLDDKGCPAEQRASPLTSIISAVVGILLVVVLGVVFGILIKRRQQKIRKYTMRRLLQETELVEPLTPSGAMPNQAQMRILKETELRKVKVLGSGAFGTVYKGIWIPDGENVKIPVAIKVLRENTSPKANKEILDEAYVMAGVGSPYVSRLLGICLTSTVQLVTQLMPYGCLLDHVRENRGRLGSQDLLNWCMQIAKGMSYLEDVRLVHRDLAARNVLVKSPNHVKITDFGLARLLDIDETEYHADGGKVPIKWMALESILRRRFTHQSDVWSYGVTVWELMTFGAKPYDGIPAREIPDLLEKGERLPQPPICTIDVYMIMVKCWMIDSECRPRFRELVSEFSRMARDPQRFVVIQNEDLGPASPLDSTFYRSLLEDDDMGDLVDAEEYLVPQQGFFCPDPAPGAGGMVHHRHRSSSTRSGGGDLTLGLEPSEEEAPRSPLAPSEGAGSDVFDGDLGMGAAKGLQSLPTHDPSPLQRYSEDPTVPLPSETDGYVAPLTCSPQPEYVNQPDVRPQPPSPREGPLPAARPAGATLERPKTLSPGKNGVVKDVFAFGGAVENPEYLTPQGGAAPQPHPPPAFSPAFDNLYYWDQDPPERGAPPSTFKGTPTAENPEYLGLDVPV
Sequence of Aurora B (Q96GD4 whole entry): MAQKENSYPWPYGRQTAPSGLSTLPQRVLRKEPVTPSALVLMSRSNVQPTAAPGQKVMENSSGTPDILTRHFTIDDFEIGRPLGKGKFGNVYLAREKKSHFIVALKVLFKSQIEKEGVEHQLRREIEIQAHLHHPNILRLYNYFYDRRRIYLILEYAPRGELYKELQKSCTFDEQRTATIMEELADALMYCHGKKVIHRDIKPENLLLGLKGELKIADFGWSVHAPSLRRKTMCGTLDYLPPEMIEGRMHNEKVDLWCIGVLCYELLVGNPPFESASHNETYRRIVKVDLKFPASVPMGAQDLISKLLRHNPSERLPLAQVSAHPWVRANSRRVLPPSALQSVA

Cc1ccc(NC(=O)c2cccc(CN3CCN(C)CC3)c2)cc1Oc1nccc(-c2cccnc2)n1.Cl [TGI1002, N-(4-methyl-3-((4-(pyridin-3-yl)-pyrimidin-2-yl)oxy)phenyl)-3-((4-methylpiperazin-1-yl)methyl)benzamide hydrochloride] was tested, and the median survival (BaF3-p210^T315I cells [1]) was 32.5 days, the cytotoxicity (HT-29 cells) was “cytotoxic effects” and the cytotoxicity (PC-3 cells) was “cytotoxic effects”. For the same compound, the “expression level of BCR-ABL” value (BCR-ABL) was “not affected”, the “PP2A activity enhanced compared to untreated cells” value (PP2A) was 144.67 ± 5.51% and the inhibition at 1 µM (ALK) was 4.27%. The inhibition at 1 µM (IGF1R) was 8.65%, the inhibition at 1 µM (ABL1) was 4.3% and the inhibition at 1 µM (ERK2(MAPK1)) was 0%. It also gave an inhibition at 1 µM (GSK3α) of 2.6%, an inhibition at 1 µM (InsR) of 3.7% and an inhibition at 1 µM (GSK3β) of 2.59%. For the same compound, the inhibition at 1 µM (Aurora B) was 0%, the inhibition at 1 µM (p38α) was 2.17% and the inhibition at 1 µM (HER2) was 7.88%. The inhibition at 1 µM (ERK1) was 0.01%, the IC50 (BaF3-p210^T315I cells [2]) was 14.7 ± 2.61 µM and the Kd [3] was 1.66 ± 0.45 µM. For the same compound, the “inhibition of tumor growth, in terms of tumor volume” value (“inhibition of tumor growth” below) ([4]; 30 mg/kg i.p. daily) was 51.07%, the “inhibition of tumor growth” value ([4]; 45 mg/kg i.p. daily) was 53.15% and the “inhibition of tumor growth” value ([4]; 60 mg/kg i.p. daily) was 68.01%. The body weight ([4]; 30, 45 and 60 mg/kg i.p. daily, tumor-bearing mice) was “without loss of body weight” and the “final tumor volume and weight compared to vehicle group” value ([4]; TGI1002 30, 45, 60 mg/kg, imatinib, ponatinib 10 mg/kg, i.p. daily) was “markedly lower”.
